# In patent publication US9499568B2, “Heterocyclic compound and use thereof” (Takeda Pharmaceutical Company Limited, priority 2010, dated 2016):
# System: MAP-induced hyperlocomotion in male ICR mice
# Test: Inhibition of methamphetamine (MAP)-induced hyperlocomotion
# Format: in vivo
# Settings: compound 10 mg/kg p.o. 60 min before MAP 2 mg/kg s.c., FIG. 1
# Experimental: Male ICR mice were supplied by CLEA Japan, Inc (Japan). After arrival to the vivarium, animals were allowed a minimum of 1 week for acclimation. They were housed under a 12:12-h light/dark cycle in a temperature- and humidity-controlled laboratory and allowed food and water ad libitum.
# A test compound was suspended in 0.5% methylcellulose in distilled water and orally administered (p.o.). Methamphetamine (Dainippon Sumitomo Pharma Co., Ltd.) was dissolved in saline and subcutaneously administered (s.c.). All drugs were dosed in a volume of 10 mL/kg body weight for mice.
# The widely used animal models of psychosis have been the measurement of the extent of hyperlocomotion induced by psychostimulants (e.g., amphetamine, cocaine, methamphetamine, MK-801 and phencyclidine) in rodents (Psychopharmacology 1999, vol. 145: 237-250). 4 compounds (A, B, C, D) were tested for its ability to antagonize MAP-induced hyperlocomotion in mice. Male ICR mice were habituated in the locomotor chambers with infrared sensors (BrainScienceldea Co., Ltd. Japan) to the experiment. After the habituation, animals were treated with either vehicle or the compounds (10 mg/kg, p.o.), and MAP (2 mg/kg, s.c.) was administrated 60 min later. Locomotion activities were measured, and accumulated counts (120 min after administration of MAP) were calculated in each treatment group. All data were represented as means plus the standard errors of the means (n=3-9) and analyzed using Student's t-test with significance set at **P<0.01 and ***P<0.001 or Welch's t-test with significance set at ^$P<0.05, ^$$P<0.01 and ^$$$P<0.001.
row,Structure (SMILES),inhibition of MAP-induced hyperlocomotion (accumulated locomotion counts 0-120 min)
1,"O=S1(=O)CCN2C=CC=C(c3ccc(OC4CCCCC4)cc3)C2=N1 [D, 9-[4-(cyclohexyloxy)phenyl]-3,4-dihydropyrido[2,1-c][1,2,4]thiadiazine 2,2-dioxide]",significant inhibition
2,"Cc1ccc(Oc2ccc(C3=CC=CN4CCS(=O)(=O)N=C34)cc2)cc1 [B, 9-[4-(4-methylphenoxy)phenyl]-3,4-dihydropyrido[2,1-c][1,2,4]thiadiazine 2,2-dioxide]",significant inhibition
3,"CC1=CN2CCS(=O)(=O)N=C2C(c2ccc(OC3CCCCC3)cc2)=N1 [C, 9-[4-(cyclohexyloxy)phenyl]-7-methyl-3,4-dihydropyrazino[2,1-c][1,2,4]thiadiazine 2,2-dioxide]",significant inhibition
4,"O=S1(=O)CCN2C=CC=C(c3ccc(Oc4ccccc4)cc3)C2=N1 [A, 9-(4-phenoxyphenyl)-3,4-dihydropyrido[2,1-c][1,2,4]thiadiazine 2,2-dioxide]",significant inhibition
